Measured values: patent publication US20250154146A1, “PROTEIN DEGRADERS DEVELOPED ON BASIS OF BCL-2 FAMILY PROTEIN LIGAND COMPOUNDS AND USE THEREOF” (ShanghaiTech University, priority 2022, published 2025)
“Also recorded” adds a separate entry of the source.

What was measured:
Format in all cases: cell-based
RS4;11 cells = assay: Thiazolyl blue cell proliferation assay in RS4;11 cells; settings: Homo sapiens, RS4;11 acute lymphoblastic leukemia cells, 48 hours, read-out: IC50 (nM) for inhibiting the proliferation of RS4;11 cells
Outline: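 RS4;11 cells, 3×10^4 cells/well in serum-containing RPMI-1640, treated 48 h with 7 concentrations (top 1000 nM or 100 nM, 10-fold serial dilutions). MTT added for 3 h at 37 °C, solubilised 4-6 h with SDS/isopropanol/HCl, absorbance read at 490 nm. IC50 from growth-inhibition curves; triplicates, at least three repeats.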

MV4;11 cells = assay: Thiazolyl blue cell proliferation assay in MV4;11 cells; settings: Homo sapiens, MV4;11 myeloid monocytic leukemia cells, 48 hours, read-out: IC50 (nM) for inhibiting the proliferation of MV4;11 cells
Outline: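 MV4;11 cells were seeded at 2×10^4 cells/well in serum-containing IMDM and treated with compound dilution series for 48 h. Viability was read by MTT at 490 nm after SDS/isopropanol/HCl solubilisation. IC50 values came from growth-inhibition curves, with 3 replicates and at least three repeats.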

Molt-4 cells = assay: Thiazolyl blue cell proliferation assay in Molt-4 cells; settings: Homo sapiens, Molt-4 acute lymphocytic leukemia cells, 72 hours, read-out: IC50 (nM) for inhibiting the proliferation of Molt-4 cells
Outline: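 BCL-XL-dependent Molt-4 cells at 2×10^4/well in serum-containing RPMI 1640 were exposed to compound concentration gradients for 72 h. Thiazolyl blue (MTT) was added for 3 h at 37° C, solubilised in SDS/isopropanol/HCl, and read at 490 nm. IC50 comes from growth-inhibition curves, triplicate, repeated ≥3 times.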

[1] = test system: Hedgehog (Hh) signaling pathway; assay: Dual-luciferase reporter assay of Hedgehog activity in Light II cells; settings: SAG stimulation, 36 h, dual-luciferase assay reporter kit, read-out: IC50 (nM) in Light II cells (inhibiting Hedgehog activity)
Description: Determination of the IC50 Values of Compounds Inhibiting Hedgehog Activity—Dual-Luciferase Reporter Assay:
Light II cells were NIH3T3 cell lines that stably express the Gli-luciferase and TK-renilla reporters. They were cultured with DMEM medium containing 10% (v/v) fetal bovine serum (FBS), 0.4 mg/ml G418, 0.15 mg/ml bleomycin (Zeocin), and penicillin/streptomycin at 37° C. in an incubator with 5% CO2. Light II cells in the logarithmic growth phase were seeded at a density of 2.5×10^4 cells/well in a 96-well plate. After 24h incubation, the cells were subjected to treatment with SAG with or without different concentrations of the compounds of the present disclosure for 36 h. After that, the Hedgehog activity was measured using the dual fluorescence reporter kit according to its instructions. The experiment had 3 replicates per group and was repeated at least three times.

BCL-XL protein = molecular target: T1, BCL-XL protein (Homo sapiens, UniProt Q07817); assay: Western blot of BCL-XL protein in Molt-4 cells; settings: 100 nM, 8 h
T1 construct: endogenous in cells; host or cells: Molt-4 (human acute lymphocytic leukemia cells)
T1 sequence (Q07817 whole entry): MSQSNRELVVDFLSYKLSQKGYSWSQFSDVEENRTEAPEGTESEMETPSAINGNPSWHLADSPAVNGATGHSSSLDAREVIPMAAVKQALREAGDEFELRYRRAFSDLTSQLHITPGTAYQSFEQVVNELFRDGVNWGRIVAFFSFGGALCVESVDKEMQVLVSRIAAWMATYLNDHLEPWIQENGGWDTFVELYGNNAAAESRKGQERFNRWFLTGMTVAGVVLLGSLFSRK
Description: The BCL-XL antibody used in the experiment was purchased from Abcam Company, and the Tubulin antibody was purchased from Proteintech Company.
Molt-4 cells in logarithmic growth phase seeded at a density of 3×10^6 cells/well in a 6-well plate were subjected to treatment with the compounds of the present disclosure, and DMSO was used as the vehicle control group. After […] of treatment, the cells were harvested and washed once in PBS. Cells were placed on ice and treated with IP protein lysis buffer containing PMSF protease inhibitors. After centrifugation at 4° C. (10 k rpm, 5 min), the supernatant was collected and mixed with 4×LDS protein loading buffer at a volume ratio of 3:1. The mixture of protein supernatant with loading buffer were further added with 5% β-mercaptoethanol. After incubation in a metal bath at 95° C. for 10 minutes, the protein samples was stored at −80° C. or cooled directly on ice for protein electrophoresis using 10% homemade polyacrylamide gel as separation gel. Electrophoresis tank and other related components were purchased from Bio-rad company. The electrophoresis conditions were voltage 80 V for 45 minutes, then switch to voltage 120V for further electrophoresis for 1 hour. Then protein in gel was transferred onto PVDF membrane at an isocurrent of 300 mA in an icy water bath for one hour. Afterwards, the membrane was blocked with 5% skim milk for 1 hour at room temperature. Subsequently the membrane was incubated with primary antibody at 4° C. overnight or at room temperature for 2 h, then washed with 1×TBST buffer (sodium chloride, 150 mM, Tris, 10 mM, Tween 20, 0.1%; PH 7.4) for three times, and then added with secondary antibody and incubated at room temperature for 45 min, washed with 1×TBST buffer (sodium chloride, 150 mM, Tris, 10 mM, Tween 20, 0.1%; PH 7.4) three times, and subjected to color development. The antibody dilution ratio was determined according to the antibody instructions.
Molt-4 cells were seeded into a 6-well plate at a density of 3×10^6 cells per well. The next day, the cells were treated with the compounds of the present disclosure at a concentration of 100 nM, and the control groups were treated with DMSO and DT2216, respectively. Protein were extracted after 8 hours treatment, and BCL-XL protein expression was assessed by the western blot.

## CC1(C)CCC(CN2CCN(c3ccc(C(=O)NS(=O)(=O)c4ccc(NC[C@H]5CC[C@H](N6CCN(Cc7ccc8c(c7)CN(C7CCC(=O)NC7=O)C8=O)CC6)CC5)c([N+](=O)[O-])c4)c(Oc4cnc5[nH]ccc5c4)c3)CC2)=C(c2ccc(Cl)cc2)C1 (relative stereo) [BCL-03147, 2-((1H-pyrrolo[2,3-b]pyridin-5-yl)oxy)-4-(4-((4′-chloro-5,5-dimethyl-3,4,5,6-tetrahydro-[1,1′-biphenyl]-2-yl)methyl)piperazin-1-yl)-N-((4-((((trans)-4-(4-((2-(2,6-dioxopiperidin-3-yl)-1-oxoisoindolin-5-yl)methyl)piperazin-1-yl)cyclohexyl)methyl)amino)-3-nitrophenyl)sulfonyl)benzamide]
RS4;11 cells
  IC50: < 20 nM
MV4;11 cells
  IC50: < 20 nM
Molt-4 cells
  IC50: < 10 nM
[1]
  IC50: < 10 nM
BCL-XL protein
  BCL-XL protein expression / degradation (western blot): significantly reduce the expression of BCL-XL protein; also recorded: significantly degraded BCL-XL protein

## CC1(C)CCC(CN2CCN(c3ccc(C(=O)NS(=O)(=O)c4ccc(NC[C@H]5CC[C@@H](N6CCN(Cc7ccc8c(c7)CN(C7CCC(=O)NC7=O)C8=O)CC6)CC5)c([N+](=O)[O-])c4)c(Oc4cnc5[nH]ccc5c4)c3)CC2)=C(c2ccc(Cl)cc2)C1 (relative stereo) [BCL-03148, 2-((1H-pyrrolo[2,3-b]pyridin-5-yl)oxy)-4-(4-((4′-chloro-5,5-dimethyl-3,4,5,6-tetrahydro-[1,1′-biphenyl]-2-yl)methyl)piperazin-1-yl)-N-((4-((((cis)-4-(4-((2-(2,6-dioxopiperidin-3-yl)-1-oxoisoindolin-5-yl)methyl)piperazin-1-yl)cyclohexyl)methyl)amino)-3-nitrophenyl)sulfonyl)benzamide]
RS4;11 cells
  IC50: < 20 nM
MV4;11 cells
  IC50: < 20 nM
Molt-4 cells
  IC50: < 10 nM
[1]
  IC50: < 10 nM
BCL-XL protein
  BCL-XL protein expression / degradation (western blot): significantly reduce the expression of BCL-XL protein; also recorded: significantly degraded BCL-XL protein

## CC1(C)CCC(CN2CCN(c3ccc(C(=O)NS(=O)(=O)c4ccc(NC[C@H]5CC[C@@H](N6CCN(Cc7cc(Br)c8c(c7)C(=O)N(C7CCC(=O)NC7=O)C8)CC6)CC5)c([N+](=O)[O-])c4)c(Oc4cnc5[nH]ccc5c4)c3)CC2)=C(c2ccc(Cl)cc2)C1 (relative stereo) [BCL-03149, 2-((1H-pyrrolo[2,3-b]pyridin-5-yl)oxy)-N-((4-((((cis)-4-(4-((7-bromo-2-(2,6-dioxopiperidin-3-yl)-3-oxoisoindolin-5-yl)methyl)piperazin-1-yl)cyclohexyl)methyl)amino)-3-nitrophenyl)sulfonyl)-4-(4-((4′-chloro-5,5-dimethyl-3,4,5,6-tetrahydro-[1,1′-biphenyl]-2-yl)methyl)piperazin-1-yl)benzamide]
RS4;11 cells
  IC50: < 20 nM
MV4;11 cells
  IC50: < 20 nM
Molt-4 cells
  IC50: < 10 nM
[1]
  IC50: < 10 nM
BCL-XL protein
  BCL-XL protein expression / degradation (western blot): significantly reduce the expression of BCL-XL protein; also recorded: significantly degraded BCL-XL protein
